Patent US20110319603A1, “METHOD FOR FLU[…] PROTEIN” (OSAKA UNIVERSITY, priority 2009, published 2011)

Experiments:
[1] = test system: MBP-PYP expressed in HEK293T cells; test: Labeling reaction with CATP in cultured cell, MBP-PYP (fluorescence microscopy); format: cell-based, Halorhodospira halophila; conditions: CATP 5 μM, 30 minutes
Method: (§1) A plasmid was prepared in which a gene MBP-PYP obtained by fusing a maltose binding protein (MBP) with a PYP was introduced into the multicloning site of pcDNA3.1, which was a mammalian expression vector. Furthermore, in order to express a PYP on the cell surface, a plasmid was prepared in which a gene PYP-TM obtained by fusing a PYP with the transmembrane domain of a platelet-derived growth factor receptor (PDGFR) was introduced into the multicloning site of pcDNA3.1, which was a mammalian expression vector. HEK293T cells were transfected with these plasmids by using lipofectamine 2000. After transfection with the plasmids, the HEK293T cells were allowed to stand at 37° C. for 36 hours and then washed with a phosphoric acid buffer (PBS). A culture medium containing CATP (5 μM) was added thereto, which then was allowed to stand for 30 minutes.

[2] = test system: PYP-TM expressed on HEK293T cells; test: Labeling reaction with CATP in cultured cell, PYP-TM (fluorescence microscopy); format: cell-based, Halorhodospira halophila; conditions: CATP 5 μM, 30 minutes
Method: as §1

[3] = target: T1, PYP (Halorhodospira halophila, UniProt P16113); test: Reaction between PYP and FCTP, analyzed by SDS-PAGE (CBB-stained and fluorescent image); format: binding
T1 construct: His tag (with enterokinase cleavage site) (N, cleaved yes); made in house; host or cells: E. coli BL21 (DE3), pET-21b(+) (pET-PYP)
T1 sequence (P16113 1-125): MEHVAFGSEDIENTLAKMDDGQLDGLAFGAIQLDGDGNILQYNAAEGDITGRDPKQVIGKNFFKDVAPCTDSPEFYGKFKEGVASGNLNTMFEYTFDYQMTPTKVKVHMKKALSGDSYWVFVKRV
Method: In Tris buffer (20 mM Tris-HCl, 150 mM NaCl, 1 mM TCEP (pH 8.0)), 5 μM of PYP was reacted with 12.5 μM of compound FCTP at 37° C. for 24 hours. After completion of the reaction, the result was analyzed by SDS-PAGE (20% acrylamide separation gel). […] With reference to FIG. 1(b), similarly in the fluorescent image, fluorescence was observed.

[4] = target: T1, PYP; test: Fluorescent properties of FCTP (fluorescence and excitation spectra with and without PYP); conditions: 8 μM compound, Tris buffer pH 8.0, 37° C.
Method: In order to examine the fluorescent properties of compound FCTP bound to the PYP, Tris buffer (20 mM Tris-HCl, 150 mM NaCl, 1 mM TCEP (pH 8.0)), the fluorescence and excitation spectra were measured at 37° C.

[5] = test system: PYP-TM expressed on HEK293T cells; test: Labeling reaction with FCTP in cultured cell (fluorescence microscopy); format: cell-based, Halorhodospira halophila; conditions: FCTP 20 μM, 30 minutes
Method: In order to express a PYP on the cell surface, a plasmid was prepared in which a gene PYP-TM obtained by fusing a PYP with the transmembrane domain of a platelet-derived growth factor receptor (PDGFR) was introduced into the multicloning site of pcDNA3.1, which is a mammalian expression vector. HEK293T cells were transfected with this plasmid by using lipofectamine 2000. After transfection with the plasmid, the HEK293T cells were allowed to stand at 37° C. for 36 hours and then washed with a phosphoric acid buffer (PBS). A culture medium containing FCTP (20 μM) was added thereto, which then was allowed to stand for 30 minutes. […] With the fluorescence microscope having an excitation wavelength of 488 nm, the cells were observed using a fluorescent filter of 510 to 550 nm.

[6] = target: T1, PYP; test: Reaction of compound FCTP with PYP in HEK293T cell lysate, SDS-PAGE; format: binding
Method: In a HEK293T cell lysate dissolved in Tris buffer (20 mM Tris-HCl, 150 mM NaCl, 1 mM TCEP (pH 8.0)), 5 μM of PYP was reacted with 50 μM of compound FCTP at 37° C. for 30 minutes in the presence or absence of 10 mM MESNa. After completion of the reaction, it was analyzed by SDS-PAGE (20% acrylamide separation gel). […] On the other hand, the fluorescent band on the high molecular weight side disappeared upon addition of MESNa (10 mM), which was a type of thiol compound. It was confirmed that an addition of a certain amount of free thiol allowed labeling to be carried out specifically in the cell lysate.

Row | Structure (SMILES) | fluorescent labeling in cells in which MBP-PYP was not expressed [1] | fluorescent labeling in cells in which MBP-PYP was expressed ([1]; excitation 436 nm) | fluorescent labeling in cells where PYP-TM was not expressed [2] | fluorescent labeling in PYP-TM expressed cells ([2]; excitation 436 nm) | thioester bond between the PYP and compound upon addition of DTT ([3]; DTT (100 mM) added after labeling) | fluorescence intensity of compound in the presence of PYP ([4]; 5 μM PYP, time-dependent) | fluorescence intensity of compound alone ([4]; no PYP, excitation at 500 nm) | fluorescent labeling in cells where PYP-TM was not expressed [5] | fluorescent labeling in PYP-TM expressed cells ([5]; excitation 488 nm) | fluorescent labeling of PYP in cell lysate ([6]; 5 μM PYP, 50 μM compound, 37° C., 30 minutes) | fluorescent band in the high molecular weight range (non-specific labeling) in cell lysate ([6]; absence of MESNa) | fluorescent band on the high molecular weight side in cell lysate ([6]; addition of MESNa (10 mM)) | labeling of the PYP (slowly migrating band, fluorescence on gel) ([3]; 5 μM PYP, 12.5 μM compound, Tris buffer pH 8.0, 37° C., 24 hours)
1 | [N-]=[N+]=NCCOCCOCCOCc1cc(O)cc2oc(=O)c(C(=O)Sc3ccccc3)cc12 [CATP] | not observed | observed | neither fluorescent labeling with FCTP nor that with CATP was observed | observed | hydrolyzed by a large excess of DTT |  |  |  |  |  |  |  | 
2 | O=C(NCc1cn(COCCOCCOCc2cc(O)cc3oc(=O)c(C(=O)Sc4ccccc4)cc23)nn1)c1ccc(C(=O)O)c(-c2c3ccc(=O)cc-3oc3cc(O)ccc23)c1 [FCTP] |  |  |  |  |  | increased in the presence of the PYP with the passage of time | very weak | neither fluorescent labeling with FCTP nor that with CATP was observed | observed | fluorescence was observed in the vicinity of the PYP band | another fluorescent band was observed in the high molecular weight range | disappeared | able to label the PYP
